We go through 3 molecules from patent US20030134859A1 (SANKYO COMPANY, LIMITED, priority 2000, published 2003).

The test system of test [1] is Mouse preadipocyte strain 3T3-L1. In words: Inhibition of differentiation as an indication of acetic acid uptake. Type of test: cell-based. The following applies: Mus musculus, 3T3-L1, 0.1 μM test substance, control (0.01% dimethylsulfoxide) = 100%, read-out: Rate of Uptake (%) of [2-14C] acetic acid. The procedure, abridged: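 Differentiation is indexed by 1 hr [2-14C]acetic acid incorporation, measured by scintillation counting and given as uptake relative to 0.01% DMSO control (100%). Mouse 3T3-L1 preadipocytes, pre-grown 10 days, received 0.1 μM test substance throughout a 4-day insulin/IBMX/dexamethasone induction, followed by 2 days' maintenance culture.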

A further test concerns ABCA1 mRNA. The test is described as follows: Quantitative analysis of ABCA1 mRNA (TaqMan PCR) in RAW264.7 cells. The following applies: 100 nM test compound, 24 hr, normalised to β-actin, DMSO = 100. Type of test: cell-based, mouse. On the procedure: The mouse monocyte/macrophage cell line, RAW264.7 (ATCC TIB71) was purchased from Dainippon Pharmaceutical Co., Ltd. As the medium, the Dulbecco's modified Eagle's medium (DMEM medium; GIBCO, Cat. No. 11995-040) containing bovine fetal serum (the final concentration: 10% (v/v), MOREGATE, lot No. 474030), penicillin G (the final concentration: 50 units/mL, GIBCO) and streptomycin (the final concentration: 20 μg/mL, GIBCO) was used.
The culture of RAW264.7 cells was carried out in a CO2 incubator (37° C., 95% R.H., 5% of CO2).
A 2 ml volume of RAW264.7 cells suspension (1×10^6 cells/mL) was plated in each well of a 6-well plate (2×10^6 cells/well) and the cells were incubated for 2 hr in a CO2 incubator. The test compounds dissolved in DMSO were diluted with DMEM medium by 20 times, and were added to the wells at a volume of 4 μL/well (final concentration of the test compound: 100 nM). As the control, the DMSO solution was diluted with the DMEM medium by 20 times, and was added to the wells at the volume of 4 μL/well. After the cells were cultured in a CO2 incubator for 24 hr, the medium was removed and the total RNA was purified by using an RNeasy Mini Kit (Qiagen), according to the protocol attached. The concentration of the RNA in the samples obtained was calculated from absorbance at 260 nm (A260=1=40 μg/ml). Six (6) μg of total RNA were diluted with RNAase-free water so as to be 22.6 μL, which was heated at 65° C. for 10 min, and then was cooled on ice. The RNA in the solution was used as the template, and the cDNA was synthesized by using a First-strand cDNA Synthesis Kit (Amersham Pharmacia Biotech). In this reaction, a solution was prepared having the following composition and was reacted at 37° C. for 1 hr.
After the reaction, 3 μL of soution were collected from each of the reaction mixtures of the test compound-treated cell samples and that of the control cell samples. The mixed solution was used as the standard solution. The standard solution and each reaction solution were purified with a Chroma Spin-100+DEPC-H2O Column according to the protocol attached, and they were used as the template for TaqMan PCR (Template). In order to draw the calibration curve, the standard solution was diluted by every 5 times for 5 steps and each solution was used for TaqMan PCR. TaqMan PCR was carried out in ABCA1 and β-actin. As Primers for use in the TaqMan PCR, 4 oligonucleotides (abca1 forward (S3), abca1 reverse (AS3), β-actin forward (S4) and β-actin reverse (AS4)) were designed which are shown in sequences No. 5 to 8 in the sequence table described later. The synthesis and purification of these 4 oligomers was ordered from Amersham Pharmacia Biotech Co.
As FAM-TAMRA labelled TaqMan Probe, 2 kinds of oligonucleotides (abca1 (p1) and β-actin (p2)) were designed and were ordered from Applied Biosystems Co. to synthesize and purify.
The following reaction mixture of ABCA1 or β-actin was divided into 2 wells of a MicroAmp Optical 96-well Reaction Plate (Applied Biosystem Co.). TaqMan Universal PCR Master Mix was purchased from Applied Biosystem Co.
The plate was covered with a MicroAmp Optical Cap (Applied Biosystems Co.), and TaqMan PCR was carried out by using an ABI PRISM 7,700 Sequence Detection System (Applied Biosystem Co.) under the following conditions:
An analysis was made according to the procedures described in the manual of Sequence Detection Software (Applied Biosystem Co.) and the increased rate of ABCA1 mRNA due to the test compound was calculated based on the following equation.
A: Amount of the ABCA1 mRNA in the presence of the test compound
B: Amount of the β-actin mRNA in the presence of the test compound
C: Amount of the ABCA1 mRNA in the presence of DMSO
D: Amount of the β-actin mRNA in the presence of DMSO
Increase Rate (%) of ABCA1 mRNA=(A/B)/(C/D)×100

For the molecule `Cc1csc(NC(=O)c2cc([N+](=O)[O-])ccc2Cl)n1` [Example 3, N-(4-Methylthiazol-2-yl)-(2-chloro-5-nitrophenyl)carboxamide], the activity at 0.1 µM in test [1] is 68.9%.
Same read-out and setting: as for `O=C(Nc1nc2ccc(Cc3ccc(F)cc3)cc2s1)c1cc([N+](=O)[O-])ccc1Cl` [Example 90, N-[6-(4-Fluorobenzyl)benzothiazol-2-yl]-(2-chloro-5-nitrophenyl)carboxamide], the figure is 60.5%.
`O=C(Nc1ccc(-c2ccc(O)cc2)cc1)c1cc([N+](=O)[O-])ccc1Cl` [Example 135, N-[4-(4-Hydroxyphenyl)phenyl]-2-(chloro-5-nitrophenyl)carboxamide]: the “Rate of Increase (%) of ABCA1 mRNA” value in the test with ABCA1 mRNA is on record as 163.0%.
